Experiments:
[1] = tested on: mouse intestinal organoids; assay: mouse small intestinal organoid differentiation, lineage markers by Q-PCR; assay type: cell-based; settings: ENR media, Q-PCR after 5 days of treatment, FIG. 2
Description: Cryopreserved mouse intestinal organoids derived from small intestine were obtained from Stem Cell Technologies. The organoids were thawed and propagated in Intesticult Growth Medium (Mouse) (purchased from Stem Cell Technologies) following the company's instructions. Briefly, ˜100 organoid fragments/well are embedded in Matrigel domes in 24-well plates and growth media is renewed every 2-3 days. The organoids are passaged every 5-6 days in 1:4 ratio. To assess the potential of the predicted perturbations to induce the enteroendocrine cell lineage during organoid differentiation, we established an in vitro assay to induce the various intestinal lineages (enterocytes, goblet cells, Paneth cells, enteroendocrine cells) based on published data (Yin et al, Nat Methods. 2014 January; 11(1):106-12). Briefly, organoid fragments are embedded in Matrigel and grow in custom-made media in the presence of EGF, Noggin, Rspondin (ENR) supplemented with the indicated factors (Table 4) that are known to induce markers of the various intestinal lineages. The expression of markers and the induction of the various cell lineages was assessed by Q-PCRs after 5 days of treatments (FIG. 2). Further characterization of the organoids will be performed by immunofluorescence staining and flow cytometry. […]

[2] = tested on: mouse intestinal organoids; settings: ENR media supplemented with factor; based on published data (Yin et al); cited from earlier work

Structure (SMILES) | expression of chromogranin A and chromogranin B genes, markers of enteroendocrine cells [1] | Cell lineage (factors known to induce markers of intestinal lineages) [2]
C[C@H](NC(=O)Cc1cc(F)cc(F)c1)C(=O)N[C@H](C(=O)OC(C)(C)C)c1ccccc1 [DAPT] | induces the expression of chromogranin A and chromogranin B genes | Enteroendocrine Cells, Paneth
Cc1ccc2nc(NC(=O)CSc3nc4c(c(=O)n3-c3ccccc3)SCC4)sc2c1 [IWP2] |  | Enterocytes, Enteroendocrine Cells

Reference: patent publication US20230077584A1, “METHODS AND COMPOSITIONS FOR MODULATING ENTEROENDOCRINE CELLS” (Flagship Pioneering Innovations VI, LLC, priority 2021, published 2023)
